Source: the supplement of paper PMC10307832

What was measured:
Assay in all cases: relative viability (nuclei count vs DMSO), 5 days (fraction); higher = more cells survive
Motesanib + Palbociclib = compound: CC1(C)CNc2cc(NC(=O)c3cccnc3NCc3ccncc3)ccc21 [Motesanib] + CC(=O)c1c(C)c2cnc(Nc3ccc(N4CCNCC4)cn3)nc2n(C2CCCC2)c1=O [Palbociclib] (partner 0.5 µM)
Outline: (§1)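 Cells from lung cancer lines were seeded into 1536-well plates and, one day later, dosed by pin tool. Treatments were either a single drug or a fixed dose of an anchor drug with five library-drug doses (not always all listed) in √10 steps. After 5 days, nuclei were stained in a one-step fixation (final 0.05% Triton X-100, 1% formaldehyde, 1 ug/ml Hoechst) and counted on 4× images, and relative viability is the treated-to-vehicle nuclei ratio, as the median of duplicate plates.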

Motesanib + Navitoclax = compound: CC1(C)CNc2cc(NC(=O)c3cccnc3NCc3ccncc3)ccc21 [Motesanib] + CC1(C)CCC(c2ccc(Cl)cc2)=C(CN2CCN(c3ccc(C(=O)NS(=O)(=O)c4ccc(N[C@H](CCN5CCOCC5)CSc5ccccc5)c(S(=O)(=O)C(F)(F)F)c4)cc3)CC2)C1 [Navitoclax] (partner 0.5 µM)
Outline: as §1

[1] = compound: C[C@@]1(C(=O)Nc2ccc(F)nc2)CCCN1c1nc(Nc2cc(C3CC3)n[nH]2)c2cccn2n1 + C[C@@H](Oc1cc(-c2cnn(C3CCNCC3)c2)cnc1N)c1c(Cl)ccc(F)c1Cl [Crizotinib] (partner 1 µM)
Outline: as §1

[2] = compound: C[C@@]1(C(=O)Nc2ccc(F)nc2)CCCN1c1nc(Nc2cc(C3CC3)n[nH]2)c2cccn2n1 + C[C@]1(O)C[C@@H](c2nc(-c3ccc4ccc(-c5ccccc5)nc4c3)c3c(N)nccn32)C1 [Linsitinib] (partner 1 µM)
Outline: as §1

NCI-H1915
relative viability (Motesanib + Palbociclib; first compound 0.01 µM): 0.541
relative viability (Motesanib + Palbociclib; first compound 0.03162 µM): 0.522
relative viability (Motesanib + Palbociclib; first compound 0.1 µM): 0.545
relative viability (Motesanib + Palbociclib; first compound 0.3162 µM): 0.508
relative viability (Motesanib + Palbociclib; first compound 1 µM): 0.575
relative viability (Motesanib + Navitoclax; first compound 0.01 µM): 0.782
relative viability (Motesanib + Navitoclax; first compound 0.03162 µM): 0.747
relative viability (Motesanib + Navitoclax; first compound 0.1 µM): 0.824
relative viability (Motesanib + Navitoclax; first compound 0.3162 µM): 0.794
relative viability (Motesanib + Navitoclax; first compound 1 µM): 0.784
relative viability ([1]; first compound 0.04 µM): 0.932
relative viability ([1]; first compound 0.1265 µM): 0.874
relative viability ([1]; first compound 0.4 µM): 0.898
relative viability ([1]; first compound 1.265 µM): 0.952
relative viability ([2]; first compound 0.04 µM): 1.08
relative viability ([2]; first compound 0.1265 µM): 1.08
relative viability ([2]; first compound 0.4 µM): 1.08
relative viability ([2]; first compound 1.265 µM): 1.16

NCI-H1944
relative viability (Motesanib + Palbociclib; first compound 0.01 µM): 0.352
relative viability (Motesanib + Palbociclib; first compound 0.03162 µM): 0.328
relative viability (Motesanib + Palbociclib; first compound 0.1 µM): 0.334
relative viability (Motesanib + Palbociclib; first compound 0.3162 µM): 0.302
relative viability (Motesanib + Palbociclib; first compound 1 µM): 0.326
relative viability (Motesanib + Navitoclax; first compound 0.01 µM): 1.06
relative viability (Motesanib + Navitoclax; first compound 0.03162 µM): 1.03
relative viability (Motesanib + Navitoclax; first compound 0.1 µM): 1.07
relative viability (Motesanib + Navitoclax; first compound 0.3162 µM): 1.04
relative viability (Motesanib + Navitoclax; first compound 1 µM): 1.15
relative viability ([1]; first compound 0.04 µM): 0.981
relative viability ([1]; first compound 0.1265 µM): 1.03
relative viability ([1]; first compound 0.4 µM): 0.875
relative viability ([1]; first compound 1.265 µM): 1.17
relative viability ([2]; first compound 0.04 µM): 1.18
relative viability ([2]; first compound 0.1265 µM): 1.2
relative viability ([2]; first compound 0.4 µM): 1.1
relative viability ([2]; first compound 1.265 µM): 1.3

NCI-H1975
relative viability (Motesanib + Palbociclib; first compound 0.01 µM): 0.53
relative viability (Motesanib + Palbociclib; first compound 0.03162 µM): 0.508
relative viability (Motesanib + Palbociclib; first compound 0.1 µM): 0.507
relative viability (Motesanib + Palbociclib; first compound 0.3162 µM): 0.565
relative viability (Motesanib + Palbociclib; first compound 1 µM): 0.617
relative viability (Motesanib + Navitoclax; first compound 0.01 µM): 1.11
relative viability (Motesanib + Navitoclax; first compound 0.03162 µM): 1.12
relative viability (Motesanib + Navitoclax; first compound 0.1 µM): 1.05
relative viability (Motesanib + Navitoclax; first compound 0.3162 µM): 1.11
relative viability (Motesanib + Navitoclax; first compound 1 µM): 1.26
relative viability ([1]; first compound 0.04 µM): 0.962
relative viability ([1]; first compound 0.1265 µM): 0.929
relative viability ([1]; first compound 0.4 µM): 0.899
relative viability ([1]; first compound 1.265 µM): 0.486
relative viability ([2]; first compound 0.04 µM): 0.913
relative viability ([2]; first compound 0.1265 µM): 0.922
relative viability ([2]; first compound 0.4 µM): 0.933
relative viability ([2]; first compound 1.265 µM): 0.727

NCI-H1993
relative viability (Motesanib + Palbociclib; first compound 0.01 µM): 0.675
relative viability (Motesanib + Palbociclib; first compound 0.03162 µM): 0.622
relative viability (Motesanib + Palbociclib; first compound 0.1 µM): 0.752
relative viability (Motesanib + Palbociclib; first compound 0.3162 µM): 0.626
relative viability (Motesanib + Palbociclib; first compound 1 µM): 0.553
relative viability (Motesanib + Navitoclax; first compound 0.01 µM): 1.15
relative viability (Motesanib + Navitoclax; first compound 0.03162 µM): 0.882
relative viability (Motesanib + Navitoclax; first compound 0.1 µM): 0.912
relative viability (Motesanib + Navitoclax; first compound 0.3162 µM): 0.921
relative viability (Motesanib + Navitoclax; first compound 1 µM): 0.802
relative viability ([1]; first compound 0.04 µM): 0.663
relative viability ([1]; first compound 0.4 µM): 0.64
relative viability ([1]; first compound 1.265 µM): 0.633
relative viability ([2]; first compound 0.04 µM): 0.705
relative viability ([2]; first compound 0.4 µM): 0.723
relative viability ([2]; first compound 1.265 µM): 0.733

NCI-H2009
relative viability (Motesanib + Palbociclib; first compound 0.01 µM): 0.273
relative viability (Motesanib + Palbociclib; first compound 0.03162 µM): 0.246
relative viability (Motesanib + Palbociclib; first compound 0.1 µM): 0.276
relative viability (Motesanib + Palbociclib; first compound 0.3162 µM): 0.246
relative viability (Motesanib + Palbociclib; first compound 1 µM): 0.264
relative viability (Motesanib + Navitoclax; first compound 0.01 µM): 1.12
relative viability (Motesanib + Navitoclax; first compound 0.03162 µM): 1.19
relative viability (Motesanib + Navitoclax; first compound 0.1 µM): 1.15
relative viability (Motesanib + Navitoclax; first compound 0.3162 µM): 1.21
relative viability (Motesanib + Navitoclax; first compound 1 µM): 1.18
relative viability ([1]; first compound 0.04 µM): 1.06
relative viability ([1]; first compound 0.1265 µM): 1.01
relative viability ([1]; first compound 0.4 µM): 0.966
relative viability ([1]; first compound 1.265 µM): 0.541
relative viability ([2]; first compound 0.04 µM): 1.2
relative viability ([2]; first compound 0.1265 µM): 1.2
relative viability ([2]; first compound 0.4 µM): 1.13
relative viability ([2]; first compound 1.265 µM): 1.19

NCI-H2023
relative viability (Motesanib + Palbociclib; first compound 0.01 µM): 0.365
relative viability (Motesanib + Palbociclib; first compound 0.03162 µM): 0.378
relative viability (Motesanib + Palbociclib; first compound 0.1 µM): 0.361
relative viability (Motesanib + Palbociclib; first compound 0.3162 µM): 0.385
relative viability (Motesanib + Palbociclib; first compound 1 µM): 0.401
relative viability (Motesanib + Navitoclax; first compound 0.01 µM): 0.949
relative viability (Motesanib + Navitoclax; first compound 0.03162 µM): 0.916
relative viability (Motesanib + Navitoclax; first compound 0.1 µM): 1.02
relative viability (Motesanib + Navitoclax; first compound 0.3162 µM): 1.02
relative viability (Motesanib + Navitoclax; first compound 1 µM): 0.98
relative viability ([1]; first compound 0.04 µM): 0.467
relative viability ([1]; first compound 0.1265 µM): 0.424
relative viability ([1]; first compound 0.4 µM): 0.318
relative viability ([1]; first compound 1.265 µM): 0.119
relative viability ([2]; first compound 0.04 µM): 0.699
relative viability ([2]; first compound 0.1265 µM): 0.619
relative viability ([2]; first compound 0.4 µM): 0.537
relative viability ([2]; first compound 1.265 µM): 0.657

NCI-H2085
relative viability (Motesanib + Palbociclib; first compound 0.01 µM): 0.512
relative viability (Motesanib + Palbociclib; first compound 0.03162 µM): 0.488
relative viability (Motesanib + Palbociclib; first compound 0.1 µM): 0.471
relative viability (Motesanib + Palbociclib; first compound 0.3162 µM): 0.465
relative viability (Motesanib + Palbociclib; first compound 1 µM): 0.474
relative viability (Motesanib + Navitoclax; first compound 0.01 µM): 1.2
relative viability (Motesanib + Navitoclax; first compound 0.03162 µM): 1.29
relative viability (Motesanib + Navitoclax; first compound 0.1 µM): 1.21
relative viability (Motesanib + Navitoclax; first compound 0.3162 µM): 1.13
relative viability (Motesanib + Navitoclax; first compound 1 µM): 1.12
relative viability ([1]; first compound 0.04 µM): 0.913
relative viability ([1]; first compound 0.1265 µM): 0.979
relative viability ([1]; first compound 0.4 µM): 0.844
relative viability ([1]; first compound 1.265 µM): 0.635
relative viability ([2]; first compound 0.04 µM): 0.877
relative viability ([2]; first compound 0.1265 µM): 0.873
relative viability ([2]; first compound 0.4 µM): 0.809
relative viability ([2]; first compound 1.265 µM): 0.822

NCI-H2087
relative viability (Motesanib + Palbociclib; first compound 0.1 µM): 0.26
relative viability (Motesanib + Palbociclib; first compound 0.3162 µM): 0.232
relative viability (Motesanib + Palbociclib; first compound 1 µM): 0.26
relative viability (Motesanib + Navitoclax; first compound 0.01 µM): 0.92
relative viability (Motesanib + Navitoclax; first compound 0.03162 µM): 1.14
relative viability (Motesanib + Navitoclax; first compound 0.1 µM): 0.997
relative viability (Motesanib + Navitoclax; first compound 0.3162 µM): 0.902
relative viability (Motesanib + Navitoclax; first compound 1 µM): 1.03
relative viability ([1]; first compound 0.04 µM): 0.88
relative viability ([1]; first compound 0.1265 µM): 1.06
relative viability ([1]; first compound 0.4 µM): 0.699
relative viability ([1]; first compound 1.265 µM): 0.613
relative viability ([2]; first compound 0.04 µM): 0.933
relative viability ([2]; first compound 0.1265 µM): 0.935
relative viability ([2]; first compound 0.4 µM): 0.962
relative viability ([2]; first compound 1.265 µM): 0.932

NCI-H2126
relative viability (Motesanib + Palbociclib; first compound 0.01 µM): 0.333
relative viability (Motesanib + Palbociclib; first compound 0.03162 µM): 0.35
relative viability (Motesanib + Palbociclib; first compound 0.1 µM): 0.341
relative viability (Motesanib + Palbociclib; first compound 0.3162 µM): 0.347
relative viability (Motesanib + Palbociclib; first compound 1 µM): 0.412
relative viability (Motesanib + Navitoclax; first compound 0.01 µM): 0.821
relative viability (Motesanib + Navitoclax; first compound 0.03162 µM): 0.84
relative viability (Motesanib + Navitoclax; first compound 0.1 µM): 0.874
relative viability (Motesanib + Navitoclax; first compound 0.3162 µM): 0.878
relative viability (Motesanib + Navitoclax; first compound 1 µM): 0.813
relative viability ([1]; first compound 0.04 µM): 0.923
relative viability ([1]; first compound 0.1265 µM): 0.845
relative viability ([1]; first compound 0.4 µM): 0.672
relative viability ([1]; first compound 1.265 µM): 0.98
relative viability ([2]; first compound 0.04 µM): 0.736
relative viability ([2]; first compound 0.1265 µM): 0.685
relative viability ([2]; first compound 0.4 µM): 0.712
relative viability ([2]; first compound 1.265 µM): 0.771
